Data as given in ChEMBL document CHEMBL2203035, “Synthesis and docking studies of novel antitumor benzimidazoles” (Bioorg Med Chem, 2012).
Blank lines part the entries; values can stand above or below the compound they belong to.

Assays:
MCF7 [1] = assay: Downregulation of uPA protein expression in human MCF7 cell extract at 0.335 ug/well after 48 hrs by ELISA (reference value: 1 1.4000 +/- 1.40 ng/ml)
A549 [2] = assay: Downregulation of uPA protein expression in human A549 cell extract at 3.40 uM after 48 hrs by ELISA (reference value: 11.0000 +/-1.60 ng/ml); assay type: functional
A549 [3] = assay: Cytotoxicity against human A549 cells after 72 hrs by alamar blue assay; assay type: functional, cell-based; conditions: A549, 72 h
A549 [4] = assay: Downregulation of uPA protein expression in human A549 cell extract at 1.70 uM after 48 hrs by ELISA (reference value: 11.0000 +/-1.60 ng/ml); assay type: functional
A549 [5] = assay: Downregulation of uPA protein expression in human A549 cell extract at 0.425 uM after 48 hrs by ELISA; assay type: functional
A549 [6] = assay: Downregulation of uPA protein expression in human A549 cell extract at 3.40 uM after 48 hrs by ELISA; assay type: functional
Raji [7] = assay: Inhibition of tumor promotion in human Raji cells assessed as TPA-induced Epstein-Barr virus early antigen activation at 10 mol ratio/TPA after 48 hrs by indirect immunofluorescence analysis relative to TPA alone; assay type: functional; parameters: scale not given: the % may be the effect or the level left
MCF7 [8] = assay: Downregulation of uPA protein expression in human MCF7 cell extract at 0.167 uM after 48 hrs by ELISA; assay type: functional
[9] = target: Urokinase plasminogen activator surface receptor (Homo sapiens, UniProt Q03405); assay: Binding affinity to uPAR
Raji [10] = assay: Inhibition of tumor promotion in human Raji cells assessed as TPA-induced Epstein-Barr virus early antigen activation at 1000 mol ratio/TPA after 48 hrs by indirect immunofluorescence analysis relative to TPA alone; assay type: functional; parameters: scale not given: the % may be the effect or the level left
MCF7 [11] = assay: Downregulation of uPA protein expression in human MCF7 cell extract at 0.67 uM after 48 hrs by ELISA; assay type: functional
MCF7 [12] = assay: Downregulation of uPA protein expression in human MCF7 cell extract at 0.084 ug/well after 48 hrs by ELISA (reference value: 1 1.4000 +/- 1.40 ng/ml)
MCF7 [13] = assay: cells; conditions: Homo sapiens, MCF7, 48 h
Description: Cytotoxicity against human MCF7 cells after 48 hrs by sulforhodamine B assay

A549 [14] = assay: Downregulation of uPA protein expression in human A549 cell extract at 1.70 uM after 48 hrs by ELISA; assay type: functional
Raji [15] = assay: Inhibition of tumor promotion in human Raji cells assessed as TPA-induced Epstein-Barr virus early antigen activation at 100 mol ratio/TPA after 48 hrs by indirect immunofluorescence analysis relative to TPA alone; assay type: functional; parameters: scale not given: the % may be the effect or the level left
MCF7 [16] = assay: Downregulation of uPA protein expression in human MCF7 cell extract at 0.67 uM after 48 hrs by ELISA (reference value: 1 1.4000 +/- 1.40 ng/ml); assay type: functional
A549 [17] = assay: Downregulation of uPA protein expression in human A549 cell extract at 0.85 uM after 48 hrs by ELISA (reference value: 11.0000 +/-1.60 ng/ml); assay type: functional
MCF7 [18] = assay: Downregulation of uPA protein expression in human MCF7 cell extract at 0.335 uM after 48 hrs by ELISA; assay type: functional
MCF7 [19] = assay: Downregulation of uPA protein expression in human MCF7 cell extract at 0.167 ug/well after 48 hrs by ELISA (reference value: 1 1.4000 +/- 1.40 ng/ml)
MCF7 [20] = assay: Downregulation of uPA protein expression in human MCF7 cell extract at 0.084 uM after 48 hrs by ELISA; assay type: functional
A549 [21] = assay: Downregulation of uPA protein expression in human A549 cell extract at 0.425 uM after 48 hrs by ELISA (reference value: 11.0000 +/-1.60 ng/ml); assay type: functional
A549 [22] = assay: Downregulation of uPA protein expression in human A549 cell extract at 0.85 uM after 48 hrs by ELISA; assay type: functional
Raji [23] = assay: Inhibition of tumor promotion in human Raji cells assessed as TPA-induced Epstein-Barr virus early antigen activation at 500 mol ratio/TPA after 48 hrs by indirect immunofluorescence analysis relative to TPA alone; assay type: functional; parameters: scale not given: the % may be the effect or the level left
MCF7 [24] = assay: Downregulation of uPA protein expression in human MCF7 cell extract at 0.50 uM after 48 hrs by ELISA (reference value: 1 1.4000 +/- 1.40 ng/ml); assay type: functional
A549 [25] = assay: Downregulation of uPA protein expression in human A549 cell extract at 3 uM after 48 hrs by ELISA (reference value: 11.00 +/-1.60 ng/ml); assay type: functional
MCF7 [26] = assay: Downregulation of uPA protein expression in human MCF7 cell extract at 0.0625 uM after 48 hrs by ELISA; assay type: functional
MCF7 [27] = assay: Downregulation of uPA protein expression in human MCF7 cell extract at 0.125 uM after 48 hrs by ELISA; assay type: functional
MCF7 [28] = assay: Downregulation of uPA protein expression in human MCF7 cell extract at 0.125 uM after 48 hrs by ELISA (reference value: 1 1.4000 +/- 1.40 ng/ml); assay type: functional
MCF7 [29] = assay: Downregulation of uPA protein expression in human MCF7 cell extract at 0.25 uM after 48 hrs by ELISA (reference value: 1 1.4000 +/- 1.40 ng/ml); assay type: functional
MCF7 [30] = assay: Downregulation of uPA protein expression in human MCF7 cell extract at 0.0625 ug/well after 48 hrs by ELISA (reference value: 1 1.4000 +/- 1.40 ng/ml)
MCF7 [31] = assay: Downregulation of uPA protein expression in human MCF7 cell extract at 0.25 uM after 48 hrs by ELISA; assay type: functional
MCF7 [32] = assay: Downregulation of uPA protein expression in human MCF7 cell extract at 0.50 uM after 48 hrs by ELISA; assay type: functional
A549 [33] = assay: Downregulation of uPA protein expression in human A549 cell extract at 1.5 uM after 48 hrs by ELISA (reference value: 11.00 +/-1.60 ng/ml); assay type: functional
A549 [34] = assay: Downregulation of uPA protein expression in human A549 cell extract at 12 uM after 48 hrs by ELISA (reference value: 11.00 +/-1.60 ng/ml); assay type: functional
A549 [35] = assay: Downregulation of uPA protein expression in human A549 cell extract at 6 uM after 48 hrs by ELISA (reference value: 11.00 +/-1.60 ng/ml); assay type: functional

Urokinase plasminogen activator surface receptor, sequence (Q03405 whole entry): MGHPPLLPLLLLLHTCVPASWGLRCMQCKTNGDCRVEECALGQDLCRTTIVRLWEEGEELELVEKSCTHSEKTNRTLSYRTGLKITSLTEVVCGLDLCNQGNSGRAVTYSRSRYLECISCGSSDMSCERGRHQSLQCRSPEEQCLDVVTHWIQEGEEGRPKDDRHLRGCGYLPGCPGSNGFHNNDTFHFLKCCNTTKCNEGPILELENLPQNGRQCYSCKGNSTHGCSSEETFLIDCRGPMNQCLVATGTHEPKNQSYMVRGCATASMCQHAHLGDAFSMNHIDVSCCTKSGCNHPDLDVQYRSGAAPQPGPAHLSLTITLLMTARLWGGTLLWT

Ki [9]: 0.000288 nM | IC50 (MCF7 [13]): 0.667 µg/well
SMILES: C=CCn1c(CN2C3=Nc4ccccc4C(=O)NC3=Nc3ccccc32)nc2ccccc21
Activity (MCF7 [1]): 7 ng/mL | Activity (A549 [2]): 3.8 ng/mL | IC50 (A549 [3]): 3400 nM | Activity (A549 [4]): 5.3 ng/mL | Activity (A549 [5]): 33% | Activity (A549 [6]): 65% | Activity (Raji [7]): 100% | Activity (MCF7 [8]): 33% | Activity (Raji [10]): 11.6% | Activity (MCF7 [11]): 61% | Activity (MCF7 [12]): 8.8 ng/mL | Activity (A549 [14]): 52% | Activity (Raji [15]): 77.9% | Activity (MCF7 [16]): 4.4 ng/mL | Activity (A549 [17]): 6.2 ng/mL | Activity (MCF7 [18]): 39% | Activity (MCF7 [19]): 7.7 ng/mL | Activity (MCF7 [20]): 23% | Activity (A549 [21]): 7.4 ng/mL | Activity (A549 [22]): 44% | Activity (Raji [23]): 45.8%

Ki [9]: 0.000589 nM | IC50 (MCF7 [13]): 0.515 µg/well
SMILES: N#Cc1cc(-c2ccccc2)n(Cc2nc3ccccc3[nH]2)c1N
Activity (MCF7 [24]): 2.8 ng/mL | Activity (A549 [25]): 9.7 ng/mL | IC50 (A549 [3]): 12000 nM | Activity (MCF7 [26]): 35% | Activity (Raji [7]): 100% | Activity (Raji [10]): 18% | Activity (MCF7 [27]): 50% | Activity (MCF7 [28]): 5.7 ng/mL | Activity (MCF7 [29]): 4 ng/mL | Activity (MCF7 [30]): 7.4 ng/mL | Activity (MCF7 [31]): 65% | Activity (Raji [15]): 82% | Activity (MCF7 [32]): 75% | Activity (A549 [33]): 11.6 ng/mL | Activity (A549 [34]): 9.2 ng/mL | Activity (A549 [35]): 9.8 ng/mL | Activity (Raji [23]): 48.3%
